Measurements: patent US7070940B2, “Method for determining the ability of a compound to modify the interaction between parkin and the p38 protein” (Aventis Pharma S.A., priority 2002, dated 2006)

Key:
interaction Parkin-p38 = assay: Reverse two-hybrid screening assay in yeast (growth on 5-fluoroorotic acid); format: cell-based, Saccharomyces cerevisiae; conditions: internal control; agar medium with 0.35 g/l 5FOA, 30° C., 48 h and/or 72 h
Description: The Saccharomyces cerevisiae strain used for the screening can be the L40 strain used to clone the p38 protein. However, this strain must contain the URA3 reporter gene in place of the HIS3 reporter gene under the control of a promoter containing a sequence to which the LexA protein attaches to induce transcription. This strain may also contain a disruption in the erg6 gene and/or genes such as pdr5 or pdr11, to increase cell permeability to the compounds tested during the screening (WO96/10082).
This strain is simultaneously transformed with the two plasmids encoding the p38 protein or parkin used in the previous two-hybrid test or else encoding homologous or truncated forms of these two proteins. The interaction between these proteins confers a Ura+phenotype on the doubly-transformed strain, by reconstituting a transcription factor capable of inducing transcription of the URA3 reporter gene. This Ura+ phenotype also makes it possible to use the sensitivity of the strain to 5-fluoorotic acid (5FOA) for reverse two-hybrid “positive” screening. […]
48 h and/or 72 h and they may be read by visual examination. […] The compounds which have made it possible to obtain such a response of strain growth restoration are identified as being positive and recorded in a database.

[1] = system: COS7 cells overexpressing p38; assay: p38 perinuclear inclusions (aggresomes) by immunocytochemistry in COS7 cells; format: cell-based; conditions: 15 μg/ml overnight
Protocol: The cells (COS7, 2.5′ 104 and SH-SY5Y cells, 8′ 104) were transfected with the plasmids indicated (pcDNA3-myc-p38, 0.5 ·g; or pcDNA3-myc-p38 and pcDNA3-HA-Parkin, 0.25 ·g of each), and treated or not treated with: epoxomicin (Affiniti, 1 μM), nocodazole (Sigma, 15 μg/ml), cytochalasin D (Sigma, 200 nM) overnight. Forty-eight hours after transfection, the cells were fixed and subjected to standard immunocytochemistry procedures. The polyclonal primary antibodies used were: anti-p38 (M. Mirande, 1:20 000), anti-Parkin (Asp5, 1:400), anti-proteasome 20S (Affiniti, 1:2500), anti-Hsp70 (Stressgen, 1:2500), anti-ubiquitin (Dako, 1:100) and anti-actin (Sigma, 1:100). The monoclonal primary antibodies were: anti ·a-tubulin (clone DM 1A, Sigma, 1:1000), antivimentin (DAKO, clone V9, 1:100) and anti-myc (clone 9E10, Santa Cruz, 1:400). The secondary antibodies were: anti-mouse IgGs conjugated to the fluorochrome Alexa Fluor 488 (Interchim, 1:200) and anti-rabbit IgGs conjugated to the fluorochrome CY3 (Jackson ImmunoResearch, 1:500). The cells were analysed by confocal microscopy.
We analysed the nature and the composition of the p38 protein perinuclear inclusions formed when p38 is overexpressed in cells of the COS7 line. In particular, we wondered whether these inclusions could be of the aggresome type (Kopito et al., 2000). […]

Structure (SMILES)	yeast strain growth in the presence of 5FOA (interaction Parkin-p38)	effect on p38 perinuclear aggregates [1]
O=c1cnn([C@@H]2O[C@H](CO)[C@@H](O)[C@H]2O)c(=O)[nH]1 [6-azauridine]	restores strain growth	
COC(=O)Nc1nc2ccc(C(=O)c3cccs3)cc2[nH]1 [nocodazole]		dispersion of the perinuclear aggregates
